Experimental findings from patent US20090155339A1, “Biocompatible Antimicrobial Filament Material” (AESCULAP AG & CO. KG, priority 2005, published 2009) are described below.

The data set relates to L929 cells (DSM ACC2, mouse fibroblasts). The data set can be described thus: Cytotoxicity of PHMB-HCl coated thread extracts, growth inhibition (BCA Assay method). The settings on record: positive control 7.5% v/v DMSO, 72 h. In kind it is cell-based. As to the method: The test was carried out in accordance with the standard EN ISO/IEC 17025. The thread pieces were extracted in the absence of light with the DMEM-FBS cell culture medium at 37±2° C. for 7 days. The absorbed DMEM-FBS was made up to a volume such that the surface/volume ratio was 9 cm^2/ml. As a negative control, DMEM-FBS was incubated at 37±2° C. for 7 days without test material. 7.5% v/v DMSO was used as positive control. Extracts and negative controls were diluted in five steps with DMEM-FBS solution (dilution ratio 2:3). 100 μl of the dilute solutions of the extracts and of the negative controls and also 100 μl of the positive controls were added in triplicate to wells in a […]. Thereafter, 50 μl of a freshly prepared cell suspension (7.5×10^4 cells/ml) were added to all wells except those used for background determination. The final concentrations of the extracts were accordingly 66.7%, 44.5%, 29.6%, 19.8%, 13.2% and 8.8% v/v. The plates were then incubated at 37±2° C. in humidified air (5% CO2/95% air) for 72±2 hours. Thereafter, the protein content of the samples was determined calorimetrically at a wavelength of 550 nm (BCA Assay method). The test organisms used were L929 cells (DSM ACC2, mouse fibroblasts, clone of the L strand). […] FBS and P/S from Biochrom (Berlin) and BCA protein quantification kit from Interchim (France).

For the compound `C[S+](C)[O-]` [Positive control, DMSO], the Growth inhibition is on record as 81%.
